In US11786534B2 (TAIHO PHARMACEUTICAL CO., LTD., priority 2019, dated 2023):

Assays:
[1] = molecular target: T1, human EGFR (d746-750/T790M/C797S) (Homo sapiens, UniProt P00533, C797S/DEL746-750/T790M); experiment: Inhibitory activity against EGFR (d746-750/T790M/C797S) kinase; type: biochemical
T1 construct: made in house; host or cells: Sf9 insect cells, baculovirus
In short: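 GST-fused cytoplasmic domain of human EGFR d746-750/T790M/C797S (Sf9-expressed) was incubated with 250 nM biotinylated peptide, 6 μM ATP, 10 mM MgCl2 and 10 mM MnCl2 (2.5% DMSO) for 120 min at 25 °C. After an EDTA stop, phosphotyrosine was detected by Eu-PT66/SureLight APC-SA TR-FRET (665/620 nm, excitation 337 nm). Background wells received EDTA before enzyme.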

human EGFR (L858R/C797S) = molecular target: T2, human EGFR (L858R/C797S) (Homo sapiens, UniProt P00533, C797S/L858R); experiment: Inhibitory activity against EGFR (L858R/C797S) kinase; type: biochemical; details: Test Example 1, Table 5; ATP 4 μM, 90 minutes
T2 construct: purchased SignalChem
T2 sequence (P00533 25-1210 C797S/L858R): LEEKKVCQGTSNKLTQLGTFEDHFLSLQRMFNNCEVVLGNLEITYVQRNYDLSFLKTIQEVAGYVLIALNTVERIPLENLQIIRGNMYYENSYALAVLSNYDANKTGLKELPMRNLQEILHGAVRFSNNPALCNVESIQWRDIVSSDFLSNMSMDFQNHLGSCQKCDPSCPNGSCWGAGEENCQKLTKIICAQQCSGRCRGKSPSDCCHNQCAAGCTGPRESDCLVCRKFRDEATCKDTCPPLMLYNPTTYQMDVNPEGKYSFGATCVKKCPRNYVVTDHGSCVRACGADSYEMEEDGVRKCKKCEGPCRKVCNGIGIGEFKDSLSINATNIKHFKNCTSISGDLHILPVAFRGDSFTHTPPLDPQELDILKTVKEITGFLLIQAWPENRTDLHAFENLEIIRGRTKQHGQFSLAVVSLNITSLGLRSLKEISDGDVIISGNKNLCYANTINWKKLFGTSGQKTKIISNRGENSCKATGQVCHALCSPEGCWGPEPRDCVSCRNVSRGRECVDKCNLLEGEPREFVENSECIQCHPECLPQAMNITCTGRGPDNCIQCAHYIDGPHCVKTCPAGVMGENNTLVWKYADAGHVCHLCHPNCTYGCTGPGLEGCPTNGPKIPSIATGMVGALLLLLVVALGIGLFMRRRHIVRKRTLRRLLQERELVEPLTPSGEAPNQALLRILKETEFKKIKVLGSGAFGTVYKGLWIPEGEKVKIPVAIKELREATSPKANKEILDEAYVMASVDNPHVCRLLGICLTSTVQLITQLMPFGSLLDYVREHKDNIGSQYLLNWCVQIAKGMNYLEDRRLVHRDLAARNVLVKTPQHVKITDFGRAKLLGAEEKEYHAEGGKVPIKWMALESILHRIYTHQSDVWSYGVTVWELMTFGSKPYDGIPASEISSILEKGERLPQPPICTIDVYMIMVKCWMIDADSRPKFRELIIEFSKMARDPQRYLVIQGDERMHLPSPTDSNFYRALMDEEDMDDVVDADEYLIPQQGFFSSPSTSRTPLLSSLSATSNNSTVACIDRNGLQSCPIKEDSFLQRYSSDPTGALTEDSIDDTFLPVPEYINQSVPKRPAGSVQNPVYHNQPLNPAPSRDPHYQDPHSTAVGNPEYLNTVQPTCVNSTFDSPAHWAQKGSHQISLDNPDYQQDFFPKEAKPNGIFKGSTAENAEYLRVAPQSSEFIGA
In short: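 Purified recombinant human EGFR (C797S/L858R) kinase, final ATP 4 μM, 90-minute kinase reaction, otherwise per the EGFR (d746-750/C797S) protocol. IC50 (nM) determined from inhibition data.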

[2] = Test Example 1, Table 2, ATP 6 μM, 25° C., 120 minutes

T1 sequence (P00533 with tags, fused parts or gaps DEL746-750/T790M/C797S): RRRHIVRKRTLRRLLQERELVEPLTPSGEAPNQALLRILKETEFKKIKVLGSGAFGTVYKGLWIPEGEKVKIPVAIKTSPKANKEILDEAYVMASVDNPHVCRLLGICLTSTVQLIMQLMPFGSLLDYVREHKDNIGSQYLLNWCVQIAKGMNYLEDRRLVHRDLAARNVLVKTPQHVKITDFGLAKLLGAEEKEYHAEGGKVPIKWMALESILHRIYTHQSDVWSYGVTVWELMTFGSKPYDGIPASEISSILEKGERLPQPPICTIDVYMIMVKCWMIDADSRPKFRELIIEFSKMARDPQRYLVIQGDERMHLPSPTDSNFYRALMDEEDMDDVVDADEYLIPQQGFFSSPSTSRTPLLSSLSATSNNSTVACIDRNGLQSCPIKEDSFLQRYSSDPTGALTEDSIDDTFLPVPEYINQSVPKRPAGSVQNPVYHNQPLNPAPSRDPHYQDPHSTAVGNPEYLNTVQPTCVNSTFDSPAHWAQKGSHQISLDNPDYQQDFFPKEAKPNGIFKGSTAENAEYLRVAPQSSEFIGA

IC50 [1, 2] [nM] | IC50 (human EGFR (L858R/C797S)) [nM] | IC50 ([1]; Test Example 3, Table 8; same procedures as 1) in Test Example 1) [nM] | Structure (SMILES)
< 0.3 | 0.69 |  | C#Cc1c(-c2cnc3ccccc3c2)c2c(N)ncnc2n1C12CCC(NC(=O)c3cnc(C)cn3)(CC1)C2 [Example 37, N-(4-(4-Amino-6-ethynyl-5-(quinolin-3-yl)-7H-pyrrolo[2,3-d]pyrimidin-7-yl)-bicyclo-[2.2.1]heptan-1-yl)-5-methylpyrazine-2-carboxamide]
< 0.3 | 0.6 |  | C#Cc1c(-c2cnc3ccccc3c2)c2c(N)ncnc2n1C12CCC(NC(=O)c3cnccn3)(CC1)C2 [Example 48]
< 0.3 | 1.4 |  | C#Cc1c(-c2cnc3ccccc3c2)c2c(N)ncnc2n1C12CCC(NC(C)=O)(CC1)C2 [Example 39, N-(4-(4-Amino-6-ethynyl-5-(quinolin-3-yl)-7H-pyrrolo[2,3-d]pyrimidin-7-yl)-bicyclo-[2.2.1]heptan-1-yl)acetamide]
< 0.3 | 1.2 |  | C#Cc1c(-c2cnc3ccccc3c2)c2c(N)ncnc2n1C12CCC(NC(=O)c3nccs3)(CC1)C2 [Example 53]
< 0.3 | 1.9 |  | C#Cc1c(-c2cnc3ccccc3c2)c2c(N)ncnc2n1C12CCC(NC(=O)c3ccco3)(CC1)C2 [Example 41]
< 0.3 | 0.84 |  | C#Cc1c(-c2cnc3ccccc3c2)c2c(N)ncnc2n1C12CCC(NC(=O)c3nccn3C)(CC1)C2 [Example 23, N-(4-(4-Amino-6-ethynyl-5-(quinolin-3-yl)-7H-pyrrolo[2,3-d]pyrimidin-7-yl)bicyclo-[2.2.1]heptan-1-yl)-1-methyl-1H-imidazole-2-carboxamide]
< 0.3 | 0.37 |  | C#Cc1c(-c2cnc3ccccc3c2)c2c(N)ncnc2n1C12CCC(NC(=O)c3ccnnc3)(CC1)C2 [Example 3, N-(4-(4-Amino-6-ethynyl-5-(quinolin-3-yl)-7H-pyrrolo[2,3-d]pyrimidin-7-yl)bicyclo-[2.2.1]heptan-1-yl)pyridazine-4-carboxamide]
< 0.3 | 0.46 |  | C#Cc1c(-c2cnc3ccccc3c2)c2c(N)ncnc2n1C12CCC(NC(=O)c3cncnc3)(CC1)C2 [Example 2, N-(4-(4-Amino-6-ethynyl-5-(quinolin-3-yl)-7H-pyrrolo[2,3-d]pyrimidin-7-yl)bicyclo-[2.2.1]heptan-1-yl)pyrimidine-5-carboxamide]
< 0.3 | 0.43 |  | C#Cc1c(-c2cnc3ccccc3c2)c2c(N)ncnc2n1C12CCC(NC(=O)c3ncco3)(CC1)C2 [Example 46]
< 0.3 | 0.67 |  | C#Cc1c(-c2cnc3ccccc3c2)c2c(N)ncnc2n1C12CCC(NC(=O)c3cnns3)(CC1)C2 [Example 18, N-(4-(4-Amino-6-ethynyl-5-(quinolin-3-yl)-7H-pyrrolo[2,3-d]pyrimidin-7-yl)bicyclo-[2.2.1]heptan-1-yl)-1,2,3-thiadiazole-5-carboxamide]
< 0.3 | 0.63 |  | C#Cc1c(-c2cnc3ccccc3c2)c2c(N)ncnc2n1C12CCC(NC(=O)c3cccnn3)(CC1)C2 [Example 49]
< 0.3 | 0.59 |  | C#Cc1c(-c2cnc3ccccc3c2)c2c(N)ncnc2n1C12CCC(NC(=O)c3ccnn3C)(CC1)C2 [Example 24, N-(4-(4-Amino-6-ethynyl-5-(quinolin-3-yl)-7H-pyrrolo[2,3-d]pyrimidin-7-yl)bicyclo-[2.2.1]heptan-1-yl)-1-methyl-1H-pyrazole-5-carboxamide]
< 0.3 | 0.94 |  | C#Cc1c(-c2cnc3ccccc3c2)c2c(N)ncnc2n1C12CCC(NC(=O)c3ccno3)(CC1)C2 [Example 44]
< 0.3 | 0.99 |  | C#Cc1c(-c2cnc3ccccc3c2)c2c(N)ncnc2n1C12CCC(NC(=O)c3noc(C)n3)(CC1)C2 [Example 36, N-(4-(4-Amino-6-ethynyl-5-(quinolin-3-yl)-7H-pyrrolo[2,3-d]pyrimidin-7-yl)-bicyclo-[2.2.1]heptan-1-yl)-5-methyl-1,2,4-oxadiazole-3-carboxamide]

Further lines, the molecule ahead of its results:

Structure (SMILES) | IC50 [1, 2] [nM] | IC50 (human EGFR (L858R/C797S)) [nM] | IC50 ([1]; Test Example 3, Table 8; same procedures as 1) in Test Example 1) [nM]
C#Cc1c(-c2cnc3ccccc3c2)c2c(N)ncnc2n1C12CCC(NC(=O)c3ccc4ncnn4c3)(CC1)C2 [Example 16, N-(4-(4-Amino-6-ethynyl-5-(quinolin-3-yl)-7H-pyrrolo[2,3-d]pyrimidin-7-yl)bicyclo-[2.2.1]heptan-1-yl)-[1.2.4]triazolo[1,5-a]pyrimidin-6-carboxamide] | < 0.3 | 0.49 | 
C#Cc1c(-c2cnc3ccccc3c2)c2c(N)ncnc2n1C12CCC(NC(=O)c3cncc(F)c3)(CC1)C2 [Example 35, N-(4-(4-Amino-6-ethynyl-5-(quinolin-3-yl)-7H-pyrrolo[2,3-d]pyrimidin-7-yl)-bicyclo-[2.2.1]heptan-1-yl)-5-fluoronicotinamide] | < 0.3 | 0.84 | 
C#Cc1c(-c2cnc3ccccc3c2)c2c(N)ncnc2n1C12CCC(CNC(=O)c3ccnn3C)(CC1)C2 [Example 13, N-((4-(4-Amino-6-ethynyl-5-(quinolin-3-yl)-7H-pyrrolo[2,3-d]pyrimidin-7-yl)bicyclo-[2.2.1]heptan-1-yl)methyl)-1-methyl-1H-pyrazole-5-carboxamide] | < 0.3 | 0.69 | 
C#Cc1c(-c2cnc3ccccc3c2)c2c(N)ncnc2n1C12CCC(NC(=O)C(F)F)(CC1)C2 [Example 27, N-(4-(4-Amino-6-ethynyl-5-(quinolin-3-yl)-7H-pyrrolo[2,3-d]pyrimidin-7-yl)bicyclo-[2.2.1]heptan-1-yl)-2,2-difluoroacetamide] | < 0.3 | 2.4 | 
C=CC(=O)N1CC[C@@H](n2cc(-c3cnc4ccccc4c3)c3c(N)ncnc32)C1 [Comparative Example A, (R)-1-(3(4-Amino-5-(quinolin-3-yl)-7H-pyrrolo[2,3-d]pyrimidin-7-yl)pyrrolidin-1-yl) -prop-2-en-1-one, reference compound] | 142 | 187 | 
C#Cc1c(-c2cnc3ccccc3c2)c2c(N)ncnc2n1C12CCC(NC(=O)c3cccnc3)(CC1)C2 [Example 45] | < 0.3 | 0.53 | 
C#Cc1c(-c2cnc3ccccc3c2)c2c(N)ncnc2n1C12CCC(NC(=O)[C@@H]3CN(C)CCO3)(CC1)C2 [Example 63, (S)-N-(4-(4-Amino-6-ethynyl-5-(quinolin-3-yl)-7H-pyrrolo[2,3-d]pyrimidin-7-yl) -bicyclo[2.2.1]heptan-1-yl)-4-methylmorpholine-2-carboxamide] |  |  | < 0.3
C#Cc1c(-c2cnc3ccccc3c2)c2c(N)ncnc2n1C12CCC(N3CCOCC3)(CC1)C2 [Example 9, 6-Ethynyl-7-(4-morpholinobicyclo[2.2.1]heptan-1-yl)-5-(quinolin-3-yl)-7H-pyrrolo[2,3-d]pyrimidine-4-amine] | < 0.3 | 1 | 
C#Cc1c(-c2cnc3ccccc3c2)c2c(N)ncnc2n1C12CCC(NC(=O)c3ccnn3C3CC3)(CC1)C2 [Example 20, N-(4-(4-Amino-6-ethynyl-5-(quinolin-3-yl)-7H-pyrrolo[2,3-d]pyrimidin-7-yl)bicyclo-[2.2.1]heptan-1-yl)-1-cyclopropyl-1H-pyrazole-5-carboxamide] | < 0.3 | 1.2 | 
C#Cc1c(-c2cnc3ccccc3c2)c2c(N)ncnc2n1[C@@H]1CCN(C(=O)C=C)C1 [Comparative Example B, (R)-1-(3-(4-Amino-6-ethynyl-5-(quinolin-3-yl)-7H-pyrrolo[2,3-d]pyrimidin-7-yl) -pyrrolidin-1-yl)-prop-2-en-1-one, reference compound] | 26 | 97 | 
C#Cc1c(-c2cnc3ccccc3c2)c2c(N)ncnc2n1C12CCC(CNC(=O)c3cnc(C)cn3)(CC1)C2 [Example 14, N-((4-(4-Amino-6-ethynyl-5-(quinolin-3-yl)-7H-pyrrolo[2,3-d]pyrimidin-7-yl)bicyclo-[2.2.1]heptan-1-yl)methyl)-5-methylpyrazine-2-carboxamide] | < 0.3 | 1.3 | 
C#Cc1c(-c2cnc3ccccc3c2)c2c(N)ncnc2n1C12CCC(NC(=O)c3ccncc3)(CC1)C2 [Example 43] | < 0.3 | 0.49 | 
C#Cc1c(-c2cnc3ccccc3c2)c2c(N)ncnc2n1C12CCC(NC(=O)c3ccccc3)(CC1)C2 [Example 1, N-(4-(4-Amino-6-ethynyl-5-(quinolin-3-yl)-7H-pyrrolo[2,3-d]pyrimidin-7-yl)bicyclo-[2.2.1]heptan-1-yl)benzamide] | < 0.3 | 2.8 | 
